Source: the supplement of paper PMC10307832

Key:
Experiment in all cases: relative viability (nuclei count vs DMSO), 5 days (fraction); higher = more cells survive
BGJ398 + Bortezomib = compound: CCN1CCN(c2ccc(Nc3cc(N(C)C(=O)Nc4c(Cl)c(OC)cc(OC)c4Cl)ncn3)cc2)CC1 [BGJ398] + CC(C)C[C@H](NC(=O)[C@H](Cc1ccccc1)NC(=O)c1cnccn1)B(O)O [Bortezomib] (partner 0.002 µM)
How it was run: (§1)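 One day after seeding in 1536-well plates, lung cancer cell lines were dosed by pin tool. Dosing was either single-drug or a fixed anchor-drug dose plus five library-drug doses (not always all listed) in √10 steps. After 5 days, nuclei were stained in one fix-and-stain step and counted on 4× images, and relative viability is the nuclei count of treated wells over that of vehicle wells, given as the median of duplicate plates.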

[1] = compound: C1=CC2=NC=CN=C2C=C1/C=C/3\C(=O)NC(=O)S3 + Cc1nc(NC(=O)N2CCC[C@H]2C(N)=O)sc1-c1ccnc(C(C)(C)C(F)(F)F)c1 [Alpelisib] (partner 2 µM)
How it was run: as §1

BGJ398 + Palbociclib = compound: CCN1CCN(c2ccc(Nc3cc(N(C)C(=O)Nc4c(Cl)c(OC)cc(OC)c4Cl)ncn3)cc2)CC1 [BGJ398] + CC(=O)c1c(C)c2cnc(Nc3ccc(N4CCNCC4)cn3)nc2n(C2CCCC2)c1=O [Palbociclib] (partner 0.5 µM)
How it was run: as §1

BGJ398 + AZD7762 = compound: CCN1CCN(c2ccc(Nc3cc(N(C)C(=O)Nc4c(Cl)c(OC)cc(OC)c4Cl)ncn3)cc2)CC1 [BGJ398] + NC(=O)Nc1cc(-c2cccc(F)c2)sc1C(=O)N[C@H]1CCCNC1 [AZD7762] (partner 0.2 µM)
How it was run: as §1

NCI-H1437
relative viability (BGJ398 + Bortezomib; first compound 0.01 µM): 0.521 | relative viability (BGJ398 + Bortezomib; first compound 0.03162 µM): 0.56 | relative viability (BGJ398 + Bortezomib; first compound 0.1 µM): 0.412 | relative viability (BGJ398 + Bortezomib; first compound 0.3162 µM): 0.536 | relative viability (BGJ398 + Bortezomib; first compound 1 µM): 0.462 | relative viability ([1]; first compound 0.02 µM): 0.964 | relative viability ([1]; first compound 0.06325 µM): 1.04 | relative viability ([1]; first compound 0.2 µM): 1.03 | relative viability ([1]; first compound 0.6325 µM): 0.936 | relative viability ([1]; first compound 2 µM): 0.844 | relative viability (BGJ398 + Palbociclib; first compound 0.01 µM): 0.383 | relative viability (BGJ398 + Palbociclib; first compound 0.03162 µM): 0.309 | relative viability (BGJ398 + Palbociclib; first compound 0.1 µM): 0.323 | relative viability (BGJ398 + Palbociclib; first compound 0.3162 µM): 0.337 | relative viability (BGJ398 + Palbociclib; first compound 1 µM): 0.278 | relative viability (BGJ398 + AZD7762; first compound 0.01 µM): 1.13 | relative viability (BGJ398 + AZD7762; first compound 0.03162 µM): 1.23 | relative viability (BGJ398 + AZD7762; first compound 0.1 µM): 1.14 | relative viability (BGJ398 + AZD7762; first compound 0.3162 µM): 1.17 | relative viability (BGJ398 + AZD7762; first compound 1 µM): 1.19

NCI-H1792
relative viability (BGJ398 + Bortezomib; first compound 0.01 µM): 0.936 | relative viability (BGJ398 + Bortezomib; first compound 0.03162 µM): 0.963 | relative viability (BGJ398 + Bortezomib; first compound 0.1 µM): 1.11 | relative viability (BGJ398 + Bortezomib; first compound 0.3162 µM): 0.926 | relative viability (BGJ398 + Bortezomib; first compound 1 µM): 0.942 | relative viability ([1]; first compound 0.02 µM): 0.62 | relative viability ([1]; first compound 0.06325 µM): 0.501 | relative viability ([1]; first compound 0.2 µM): 0.644 | relative viability ([1]; first compound 0.6325 µM): 0.658 | relative viability ([1]; first compound 2 µM): 0.657 | relative viability (BGJ398 + Palbociclib; first compound 0.01 µM): 0.637 | relative viability (BGJ398 + Palbociclib; first compound 0.03162 µM): 0.733 | relative viability (BGJ398 + Palbociclib; first compound 0.1 µM): 0.61 | relative viability (BGJ398 + Palbociclib; first compound 0.3162 µM): 0.655 | relative viability (BGJ398 + Palbociclib; first compound 1 µM): 0.532 | relative viability (BGJ398 + AZD7762; first compound 0.01 µM): 0.678 | relative viability (BGJ398 + AZD7762; first compound 0.03162 µM): 0.595 | relative viability (BGJ398 + AZD7762; first compound 0.1 µM): 0.784 | relative viability (BGJ398 + AZD7762; first compound 0.3162 µM): 0.646 | relative viability (BGJ398 + AZD7762; first compound 1 µM): 0.718

NCI-H650
relative viability (BGJ398 + Bortezomib; first compound 0.01 µM): 0.777 | relative viability (BGJ398 + Bortezomib; first compound 0.03162 µM): 0.909 | relative viability (BGJ398 + Bortezomib; first compound 0.1 µM): 0.845 | relative viability (BGJ398 + Bortezomib; first compound 0.3162 µM): 0.837 | relative viability (BGJ398 + Bortezomib; first compound 1 µM): 0.627 | relative viability ([1]; first compound 0.02 µM): 1.08 | relative viability ([1]; first compound 0.06325 µM): 1.04 | relative viability ([1]; first compound 0.2 µM): 1.06 | relative viability ([1]; first compound 0.6325 µM): 1.1 | relative viability ([1]; first compound 2 µM): 1.02 | relative viability (BGJ398 + Palbociclib; first compound 0.01 µM): 0.313 | relative viability (BGJ398 + Palbociclib; first compound 0.03162 µM): 0.375 | relative viability (BGJ398 + Palbociclib; first compound 0.1 µM): 0.321 | relative viability (BGJ398 + Palbociclib; first compound 0.3162 µM): 0.379 | relative viability (BGJ398 + Palbociclib; first compound 1 µM): 0.315 | relative viability (BGJ398 + AZD7762; first compound 0.01 µM): 0.877 | relative viability (BGJ398 + AZD7762; first compound 0.03162 µM): 0.934 | relative viability (BGJ398 + AZD7762; first compound 0.1 µM): 0.941 | relative viability (BGJ398 + AZD7762; first compound 0.3162 µM): 0.875 | relative viability (BGJ398 + AZD7762; first compound 1 µM): 1.04

201T
relative viability (BGJ398 + Bortezomib; first compound 0.01 µM): 1.24 | relative viability (BGJ398 + Bortezomib; first compound 0.03162 µM): 1.08 | relative viability (BGJ398 + Bortezomib; first compound 0.1 µM): 1.11 | relative viability (BGJ398 + Bortezomib; first compound 0.3162 µM): 1.07 | relative viability (BGJ398 + Bortezomib; first compound 1 µM): 1.04 | relative viability ([1]; first compound 0.02 µM): 0.955 | relative viability ([1]; first compound 0.06325 µM): 1.05 | relative viability ([1]; first compound 0.2 µM): 1.01 | relative viability ([1]; first compound 0.6325 µM): 0.978 | relative viability ([1]; first compound 2 µM): 0.877 | relative viability (BGJ398 + Palbociclib; first compound 0.01 µM): 0.387 | relative viability (BGJ398 + Palbociclib; first compound 0.03162 µM): 0.358 | relative viability (BGJ398 + Palbociclib; first compound 0.1 µM): 0.356 | relative viability (BGJ398 + Palbociclib; first compound 0.3162 µM): 0.349 | relative viability (BGJ398 + Palbociclib; first compound 1 µM): 0.268 | relative viability (BGJ398 + AZD7762; first compound 0.01 µM): 0.657 | relative viability (BGJ398 + AZD7762; first compound 0.03162 µM): 0.595 | relative viability (BGJ398 + AZD7762; first compound 0.1 µM): 0.63 | relative viability (BGJ398 + AZD7762; first compound 0.3162 µM): 0.521 | relative viability (BGJ398 + AZD7762; first compound 1 µM): 0.747

HCC-44
relative viability (BGJ398 + Bortezomib; first compound 0.01 µM): 0.938 | relative viability (BGJ398 + Bortezomib; first compound 0.03162 µM): 0.84 | relative viability (BGJ398 + Bortezomib; first compound 0.1 µM): 0.869 | relative viability (BGJ398 + Bortezomib; first compound 0.3162 µM): 0.828 | relative viability (BGJ398 + Bortezomib; first compound 1 µM): 0.713 | relative viability ([1]; first compound 0.02 µM): 0.693 | relative viability ([1]; first compound 0.06325 µM): 0.893 | relative viability ([1]; first compound 0.2 µM): 0.852 | relative viability ([1]; first compound 0.6325 µM): 0.764 | relative viability ([1]; first compound 2 µM): 0.745 | relative viability (BGJ398 + Palbociclib; first compound 0.01 µM): 0.919 | relative viability (BGJ398 + Palbociclib; first compound 0.03162 µM): 0.962 | relative viability (BGJ398 + Palbociclib; first compound 0.1 µM): 1.03 | relative viability (BGJ398 + Palbociclib; first compound 0.3162 µM): 1.02 | relative viability (BGJ398 + Palbociclib; first compound 1 µM): 0.856 | relative viability (BGJ398 + AZD7762; first compound 0.01 µM): 0.98 | relative viability (BGJ398 + AZD7762; first compound 0.03162 µM): 1 | relative viability (BGJ398 + AZD7762; first compound 0.1 µM): 1.01 | relative viability (BGJ398 + AZD7762; first compound 0.3162 µM): 1.02 | relative viability (BGJ398 + AZD7762; first compound 1 µM): 0.862

H3255
relative viability (BGJ398 + Bortezomib; first compound 0.01 µM): 0.712 | relative viability (BGJ398 + Bortezomib; first compound 0.1 µM): 0.712 | relative viability (BGJ398 + Bortezomib; first compound 0.3162 µM): 0.439 | relative viability (BGJ398 + Bortezomib; first compound 1 µM): 0.69 | relative viability ([1]; first compound 0.02 µM): 0.734 | relative viability ([1]; first compound 0.06325 µM): 0.903 | relative viability ([1]; first compound 0.2 µM): 0.661 | relative viability ([1]; first compound 0.6325 µM): 0.907 | relative viability ([1]; first compound 2 µM): 0.717 | relative viability (BGJ398 + Palbociclib; first compound 0.01 µM): 0.281 | relative viability (BGJ398 + Palbociclib; first compound 0.03162 µM): 0.321 | relative viability (BGJ398 + Palbociclib; first compound 0.1 µM): 0.314 | relative viability (BGJ398 + Palbociclib; first compound 0.3162 µM): 0.315 | relative viability (BGJ398 + Palbociclib; first compound 1 µM): 0.314 | relative viability (BGJ398 + AZD7762; first compound 0.01 µM): 0.837 | relative viability (BGJ398 + AZD7762; first compound 0.03162 µM): 0.681 | relative viability (BGJ398 + AZD7762; first compound 0.1 µM): 1.01 | relative viability (BGJ398 + AZD7762; first compound 0.3162 µM): 0.78 | relative viability (BGJ398 + AZD7762; first compound 1 µM): 0.826

NCI-H647
relative viability (BGJ398 + Bortezomib; first compound 0.01 µM): 0.986 | relative viability (BGJ398 + Bortezomib; first compound 0.03162 µM): 1.12 | relative viability (BGJ398 + Bortezomib; first compound 0.1 µM): 1.24 | relative viability (BGJ398 + Bortezomib; first compound 0.3162 µM): 0.864 | relative viability (BGJ398 + Bortezomib; first compound 1 µM): 0.793 | relative viability ([1]; first compound 0.02 µM): 0.865 | relative viability ([1]; first compound 0.06325 µM): 1.89 | relative viability ([1]; first compound 0.2 µM): 1.28 | relative viability ([1]; first compound 0.6325 µM): 1.06 | relative viability ([1]; first compound 2 µM): 1.14 | relative viability (BGJ398 + Palbociclib; first compound 0.01 µM): 0.388 | relative viability (BGJ398 + Palbociclib; first compound 0.03162 µM): 0.375 | relative viability (BGJ398 + Palbociclib; first compound 0.1 µM): 0.517 | relative viability (BGJ398 + Palbociclib; first compound 0.3162 µM): 0.395 | relative viability (BGJ398 + Palbociclib; first compound 1 µM): 0.413 | relative viability (BGJ398 + AZD7762; first compound 0.01 µM): 0.642 | relative viability (BGJ398 + AZD7762; first compound 0.03162 µM): 0.489 | relative viability (BGJ398 + AZD7762; first compound 0.1 µM): 0.497 | relative viability (BGJ398 + AZD7762; first compound 0.3162 µM): 0.326 | relative viability (BGJ398 + AZD7762; first compound 1 µM): 0.373

NCI-H23
relative viability (BGJ398 + Bortezomib; first compound 0.01 µM): 0.946 | relative viability (BGJ398 + Bortezomib; first compound 0.03162 µM): 1.05 | relative viability (BGJ398 + Bortezomib; first compound 0.1 µM): 1.19 | relative viability (BGJ398 + Bortezomib; first compound 0.3162 µM): 1.2 | relative viability (BGJ398 + Bortezomib; first compound 1 µM): 1 | relative viability ([1]; first compound 0.02 µM): 0.67 | relative viability ([1]; first compound 0.06325 µM): 0.803 | relative viability ([1]; first compound 0.2 µM): 0.589 | relative viability ([1]; first compound 0.6325 µM): 0.692 | relative viability ([1]; first compound 2 µM): 0.567 | relative viability (BGJ398 + Palbociclib; first compound 0.01 µM): 0.471 | relative viability (BGJ398 + Palbociclib; first compound 0.03162 µM): 0.601 | relative viability (BGJ398 + Palbociclib; first compound 0.1 µM): 0.591 | relative viability (BGJ398 + Palbociclib; first compound 0.3162 µM): 0.471 | relative viability (BGJ398 + Palbociclib; first compound 1 µM): 0.475 | relative viability (BGJ398 + AZD7762; first compound 0.01 µM): 0.228 | relative viability (BGJ398 + AZD7762; first compound 0.03162 µM): 0.267 | relative viability (BGJ398 + AZD7762; first compound 0.1 µM): 0.252 | relative viability (BGJ398 + AZD7762; first compound 0.3162 µM): 0.232 | relative viability (BGJ398 + AZD7762; first compound 1 µM): 0.225
